Data set [1] deals with LX-2. The data set can be described thus: Antifibrotic activity against TGF-beta induced human LX2 cells assessed as inhibition of neuraminidase activity using NA fluorogenic substrate by measuring fluorescence intensity relative to control. The format is functional.
Data set [2] deals with LX-2. The data set can be described thus: Antifibrotic activity against TGF-beta induced human LX2 cells assessed as inhibition of alpha-SMA expression by measuring fluorescence intensity relative to control. Format: functional.
Data set [3] deals with LX-2. The data set can be described thus: Antifibrotic activity against TGF-beta induced human LX2 cells assessed as inhibition of collagen I expression by measuring fluorescence intensity relative to control. Format: functional.
Data set [4] has as its system LX-2. The data set can be described thus: Antifibrotic activity against TGF-beta induced human LX2 cells assessed as reduction of alpha-SMA expression measured at 10 uM for 24 hrs by measuring fluorescence intensity relative to control. The format is functional. On the set-up: scale not given: the % may be the effect or the level left.
In data set [5] the test system is LX-2. The data set can be described thus: Antifibrotic activity against TGF-beta induced human LX2 cells assessed as reduction of collagen I expression measured at 10 uM for 24 hrs by measuring fluorescence intensity relative to control. Format: functional. On the set-up: scale not given: the % may be the effect or the level left.
For data set [6], the system named is LX2. The data set can be described thus: Inhibition of elastin receptor complex elastin binding protein subunit in human LX2 cells assessed as inhibition of EDP induced ERK phosphorylation treated at 10 uM for 24 hrs by Western blot analysis. The format is cell-based. Background: A western blot detects proteins with antibodies after separation by electrophoresis.

The test system of data set [7] is LX2. The data set can be described thus: Inhibition of elastin receptor complex elastin binding protein subunit in human LX2 cells assessed as inhibition of EDP induced PI3K phosphorylation treated at 10 uM for 24 hrs by Western blot analysis. The format is cell-based.
Data set [8] has as its system LX2. The data set can be described thus: Inhibition of elastin receptor complex elastin binding protein subunit in human LX2 cells assessed as inhibition of EDP induced AMPK phosphorylation treated at 10 uM for 24 hrs by Western blot analysis. The format is cell-based.
For data set [9], the system named is LX-2. The data set can be described thus: Antiproliferative activity against TGF-beta induced human LX2 cells assessed as decrease in cell proliferation at 10 uM for 24 hrs by BeyoClick EdU cells proliferation kit with Alex Fluor 488 and DAPI staining analysis. The format is functional, cell-based.
Data set [10] relates to LX-2. The data set can be described thus: Antifibrotic activity against TGF-beta induced human LX2 cells assessed as inhibition of neuraminidase activity using NA fluorogenic substrate measured at 10 uM for 24 hrs by measuring fluorescence intensity. The format is functional, cell-based.
In data set [11] the test system is LX-2. The data set can be described thus: Antifibrotic activity against TGF-beta induced human LX2 cells assessed as reduction of alpha-SMA expression measured at 10 uM for 24 hrs by measuring fluorescence intensity. Format: functional, cell-based.
For data set [12], the system named is LX-2. The data set can be described thus: Antifibrotic activity against TGF-beta induced human LX2 cells assessed as reduction of collagen I expression measured at 10 uM for 24 hrs by measuring fluorescence intensity. The format is functional, cell-based.
In data set [13] the test system is LX-2. The data set can be described thus: Antifibrotic activity against TGF-beta induced human LX2 cells assessed as reduction of alpha-SMA expression derived peptide measured by Western blotting analysis. Format: functional, cell-based. The conditions noted are these: dose 0.01-100 µmol/L.
The subject of data set [14] is Mus musculus. The data set can be described thus: Antifibrotic activity in CCl4-induced C57BL/6 mouse model of liver fibrosis assessed as reduction of collagen deposition in liver treated at 150 ug/kg, ip daily for 3 weeks fasted for 9 hrs after last dose and sacrificed after 8 hrs of fasting by hematoxylin and eosin staining analysis. The format is functional, organism-based. The conditions noted are these: dose 150.0 µg/kg, time 3.033 weeks.

Data set [15] relates to Mus musculus. The data set can be described thus: Antifibrotic activity in CCl4-induced C57BL/6 mouse model of liver fibrosis assessed as reduction in serum ALT level treated at 150 ug/kg, ip daily for 3 weeks. Format: functional, organism-based. The conditions noted are these: dose 150.0 µg/kg.
Data set [16] concerns Mus musculus. The data set can be described thus: Antifibrotic activity in CCl4-induced C57BL/6 mouse model of liver fibrosis assessed as reduction in serum AST level treated at 150 ug/kg, ip daily for 3 weeks. Format: functional, organism-based. The conditions noted are these: dose 150.0 µg/kg.
In data set [17] the test system is Mus musculus. The data set can be described thus: Antifibrotic activity in CCl4-induced C57BL/6 mouse model of liver fibrosis assessed as reduction in alpha-SMA level treated at 150 ug/kg, ip daily for 3 weeks by Western blo analysis. The note with it: dose 150.0 µg/kg. The format is functional, organism-based.
Data set [18] in a line: Stability in mouse serum measured at 0 to 48 hrs by RP-HPLC-MS analysis. The format is ADME, cell-free. The conditions noted are these: time 0-48 hrs.
The nature of data set [19]: Tmax in Sprague-Dawley rat plasma at 0.6 mg/kg, sc by HPLC-MS/MS analysis. Format: ADME, organism-based.
Data set [20] can be described thus: Half life in Sprague-Dawley rat plasma at 0.6 mg/kg, sc by HPLC-MS/MS analysis. The format is ADME, organism-based.
In data set [21] the test system is LX-2. The data set can be described thus: Inhibition of cell migration in human LX2 cells assessed as decreased cell number in wound area measured at 0 to 24 hrs by wound healing assay. The format is functional, cell-based. The conditions noted are these: time 0-24 hrs.
Data set [22] deals with Mus musculus. The data set can be described thus: Antifibrotic activity in CCl4-induced C57BL/6 mouse model of liver fibrosis assessed as decrease of hydroxyproline content in liver treated at 150 ug/kg ip daily for 3 weeks fasted for 9 hrs after last dose and sacrificed after 8 hrs of fasting by […] analysis. Format: functional, organism-based. The note with it: dose 150.0 µg/kg, time 3.033 weeks.

Data set [23] can be described thus: Stability in mouse serum assessed as half life measured by RP-HPLC-MS analysis. The format is ADME, cell-free.
Data set [24] can be described thus: Tmax in Sprague-Dawley rat plasma at 0.1 mg/kg, sc by HPLC-MS/MS analysis. Format: ADME, organism-based.
A short description of data set [25]: Half life in Sprague-Dawley rat plasma at 0.1 mg/kg, sc by HPLC-MS/MS analysis. Format: ADME, organism-based.

The source made the active and inactive calls. Where a SMILES comes first, the peptide text is derived from it. Bridges are numbered along the chain shown (N, C = ends). [ ]: non-standard residue; d: D form. Aib = CC(C)(N)C(=O)O

Consider `CC(C)C[C@H](NC(=O)[C@@H]1CCCN1C(=O)[C@H](CO)NC(=O)[C@H](C)NC(=O)[C@H](CCC(=O)O)NC(=O)[C@@H]1CC(=O)N[C@@H](C(C)C)C(=O)N[C@@H](C(C)C)C(=O)NCC(=O)N[C@@H](CO)C(=O)N2CCC[C@H]2C(=O)N[C@@H](CO)C(=O)N[C@@H](C)C(=O)N[C@@H](CCC(N)=O)C(=O)N1)C(=O)O` (VVGSPSAQDEASPL-OH; lactam N-9), for which the results for the “inhibition (INH)” value in [1], in data set [2] and in [3] were 62.2%, 39% and 36.1%, respectively. The Activity in data set [4] and in data set [5] was about 50% throughout. Besides, the inhibition entry in data set [6], in data set [7] and in [8] was “Active” in each case.
For the compound `CC(C)C[C@H](NC(=O)[C@@H]1CCCN1C(=O)[C@H](CO)NC(=O)[C@H](C)NC(=O)[C@@H]1CCC(=O)N[C@@H](C(C)C)C(=O)N[C@@H](C(C)C)C(=O)NCC(=O)N[C@@H](CO)C(=O)N2CCC[C@H]2C(=O)N[C@@H](CO)C(=O)N[C@@H](C)C(=O)N[C@@H](CCC(N)=O)C(=O)N[C@@H](CC(=O)O)C(=O)N1)C(=O)O` (VVGSPSAQDEASPL-OH; lactam N-10), the “inhibition (INH)” value in data set [1] is reported as 68%; in data set [2] it was 34.8%; in data set [3], 33.5%. Moreover, the Activity in data set [4] and in data set [5] was about 50% in each case. In addition, the inhibition entry in data set [6], in data set [7] and in [8] was “Active” in each case. For the same compound, in data set [9], the outcome was Active.
For `CC(C)C[C@@H]1NC(=O)[C@@H]2CCCN2C(=O)[C@H](CO)NC(=O)[C@H](C)NC(=O)[C@H](CCC(=O)O)NC(=O)[C@H](CC(=O)O)NC(=O)[C@H](CCC(N)=O)NC(=O)C(C)(C)NC(=O)[C@H](CO)NC(=O)[C@@H]2CCCN2C(=O)[C@H](CO)NC(=O)CNC(=O)[C@H](C(C)C)NC(=O)[C@H](C(C)C)NC1=O` (cyclo(ASPLVVGSPS[Aib]QDE)), the results for the “inhibition (INH)” value in [1], in [2] and in data set [3] were 75%, 24.1% and 26.8%, respectively. The Activity in data set [4] and in [5] was about 50% throughout. In addition, the inhibition entry in [6], in data set [7] and in [8] was “Active” each time.
On to H-VVGSPSAADEASPL-NH2, for which the entries for the “inhibition (INH)” value in [1], in data set [2] and in data set [3] were 19.1%, 10.6% and 11.8%, respectively. The outcome in data set [10], in data set [11] and in data set [12] was inactive.
On to H-VVGSPSAQDEASPL-NH2, for which the results for the Activity result in data set [13], in data set [4] and in [5] were “Dose-Dependent Effect”, about 50% and about 50%, respectively. Also, the “inhibition (INH)” value turned out to be 37% in [1], 27.5% in [2] and 22.5% in [3]. Further, the outcome in [11], in data set [12], in data set [9], in [14], in [15] and in data set [16] was Active. Further, the outcome in data set [17] was Active. The inhibition result in data set [6], in data set [7] and in data set [8] was “Active” throughout. This compound also showed a Stability in data set [18] of 40%. Further, the Tmax in data set [19] was determined as 4.8 min. For the same compound, the half-life in [20] is 4.8 min.
For the compound H-VVGSPSAQDEASAL-NH2, the “inhibition (INH)” value in data set [1] is on record as 23.9%; in data set [2], 18.5%; in [3], 20.6%. Besides, the result in data set [10], in [11] and in data set [12] was inactive.
For the compound `CC(C)C[C@@H]1NC(=O)[C@@H]2CCCN2C(=O)[C@H](CO)NC(=O)CNC(=O)[C@H](C(C)C)NC(=O)[C@H](C(C)C)NC(=O)[C@H](CC(C)C)NC(=O)[C@@H]2CCCN2C(=O)[C@H](CO)NC(=O)[C@H](C)NC(=O)[C@H](CCC(=O)O)NC(=O)[C@H](CC(=O)O)NC(=O)[C@H](CCC(N)=O)NC(=O)[C@H](C)NC1=O` (cyclo(AQDEASPLVVGSPL)), the figures for the “inhibition (INH)” value in data set [1], in data set [2] and in [3] were 9%, 1.7% and 9.8%, respectively. Besides, the outcome in [15] and in data set [16] was Active.
For H-VVGAPSAQDEASPL-NH2, the “inhibition (INH)” value in [1] turned out to be 26.7%; in data set [3], 5.9%. For the same compound, the inhibition entry in [2] is “inactive”. For the same compound, the result in data set [10], in data set [11] and in data set [12] was inactive.
Consider `CC(C)[C@@H]1NC(=O)CNC(=O)[C@@H]2CCCN2C(=O)[C@H](CO)NC(=O)[C@H](C)NC(=O)[C@H](CCC(=O)O)NC(=O)[C@H](CC(=O)O)NC(=O)[C@H](CCC(N)=O)NC(=O)[C@H](C)NC(=O)[C@H](Cc2ccccc2)NC(=O)[C@@H]2CCCN2C(=O)[C@H](CO)NC(=O)CNC(=O)[C@H](C(C)C)NC1=O` (cyclo(AQDEASPGVVGSPF)), for which the outcome in [13] was inactive. Also, the “inhibition (INH)” value is given as 40.9% in [1] and 0.1% in [2]. In [3], the inhibition entry is “inactive”. Moreover, the result in [15] and in data set [16] was Active.
In the case of `CC(C)C[C@@H]1NC(=O)[C@@H]2CCCN2C(=O)[C@H](CO)NC(=O)[C@H](C)NC(=O)[C@H](CCC(=O)O)NC(=O)[C@H](CC(=O)O)NC(=O)[C@H](CCC(N)=O)NC(=O)[C@H](C)NC(=O)[C@H](CO)NC(=O)[C@@H]2CCCN2C(=O)[C@H](CO)NC(=O)CNC(=O)[C@H](C(C)C)NC(=O)[C@H](C(C)C)NC1=O` (cyclo(AQDEASPLVVGSPS)), the “inhibition (INH)” value amounted to 79.8% in data set [1], 45.3% in data set [2] and 39.7% in data set [3]. Further, the Activity in [4] and in data set [5] was about 50% in each case. Further, the inhibition entry in data set [6], in [7], in data set [8] and in [21] was “Active” each time. Besides, the result in [9], in data set [14], in [22] and in [17] was Active. Besides, the half-life in [23] is over 36 h; in data set [25], 19.8 min. In addition, the Tmax in [24] is 10.2 min.
As for H-VVASPSAQDEASPL-NH2, the “inhibition (INH)” value in data set [1] was 26.8%; in data set [3], 6.9%. Besides, the inhibition result in data set [2] is “inactive”. For the same compound, the result in [10], in data set [11] and in [12] was inactive.
In the case of `Cc1ccc(=O)n(-c2ccccc2)c1`, the result in [15] and in data set [16] was Active.

What is called Tmax is the time from dosing to the highest level. As usually defined, the half-life is the time needed for the level to fall by half in the phase considered.

The values above are taken from ChEMBL document CHEMBL5380820, “Design and Discovery of Novel Cyclic Peptides as EDPs-EBP Interaction Inhibitors for the Treatment of Liver Fibrosis” (J Med Chem, 2023).
